{"source": "the supplement of paper PMC10307832", "test_in_all_cases": "relative viability (nuclei count vs DMSO), 5 days (fraction); higher = more cells survive", "key": {"A-427": {"system": "A-427", "how_it_was_run": "(§1)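 Values are medians from duplicate plates. Each reflects relative viability, defined as the nuclei count of treated wells over that of vehicle wells. Lung cancer cell lines in 1536-well plates were pin-tool dosed one day after seeding with one drug alone or with a fixed anchor-drug dose plus five library-drug doses (not always all listed) in √10 steps, then fixed, stained and imaged at 4× after 5 days.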"}, "CAL-12T": {"system": "CAL-12T", "how_it_was_run": "as §1"}, "COR-L 105": {"system": "COR-L 105", "how_it_was_run": "as §1"}, "EMC-BAC-2": {"system": "EMC-BAC-2", "how_it_was_run": "as §1"}, "HARA": {"system": "HARA", "how_it_was_run": "as §1"}, "HCC-366": {"system": "HCC-366", "how_it_was_run": "as §1"}, "HCC-827": {"system": "HCC-827", "how_it_was_run": "as §1"}, "HOP-62": {"system": "HOP-62", "how_it_was_run": "as §1"}, "LCLC-103H": {"system": "LCLC-103H", "how_it_was_run": "as §1"}, "NCI-H1355": {"system": "NCI-H1355", "how_it_was_run": "as §1"}, "NCI-H1395": {"system": "NCI-H1395", "how_it_was_run": "as §1"}, "NCI-H1437": {"system": "NCI-H1437", "how_it_was_run": "as §1"}, "NCI-H1755": {"system": "NCI-H1755", "how_it_was_run": "as §1"}, "NCI-H1792": {"system": "NCI-H1792", "how_it_was_run": "as §1"}, "NCI-H1915": {"system": "NCI-H1915", "how_it_was_run": "as §1"}, "NCI-H1975": {"system": "NCI-H1975", "how_it_was_run": "as §1"}, "NCI-H2009": {"system": "NCI-H2009", "how_it_was_run": "as §1"}, "NCI-H2228": {"system": "NCI-H2228", "how_it_was_run": "as §1"}, "NCI-H23": {"system": "NCI-H23", "how_it_was_run": "as §1"}, "NCI-H460": {"system": "NCI-H460", "how_it_was_run": "as §1"}, "NCI-H522": {"system": "NCI-H522", "how_it_was_run": "as §1"}, "NCI-H727": {"system": "NCI-H727", "how_it_was_run": "as §1"}, "SK-LU-1": {"system": "SK-LU-1", "how_it_was_run": "as §1"}, "SW 1573": {"system": "SW 1573", "how_it_was_run": "as §1"}}, "data": [{"smiles": "C[C@@H]1CN(CC(=O)Nc2ccc3c(c2)Cc2cccc(-c4cc(=O)cc(N5CCOCC5)o4)c2S3)C[C@H](C)O1", "note": "+ Cc1nc(Nc2ncc(C(=O)Nc3c(C)cccc3Cl)s2)cc(N2CCN(CCO)CC2)n1 [Dasatinib] (partner 0.075 µM)", "values": [{"measurement": "relative viability", "setting": "A-427; first compound 0.04 µM", "value": 0.737}, {"measurement": "relative viability", "setting": "A-427; first compound 0.1265 µM", "value": 0.719}, {"measurement": "relative viability", "setting": "A-427; first compound 0.4 µM", "value": 0.729}, {"measurement": "relative viability", "setting": "A-427; first compound 4 µM", "value": 0.669}, {"measurement": "relative viability", "setting": "CAL-12T; first compound 0.04 µM", "value": 0.515}, {"measurement": "relative viability", "setting": "CAL-12T; first compound 0.1265 µM", "value": 0.535}, {"measurement": "relative viability", "setting": "CAL-12T; first compound 0.4 µM", "value": 0.429}, {"measurement": "relative viability", "setting": "CAL-12T; first compound 4 µM", "value": 0.2}, {"measurement": "relative viability", "setting": "COR-L 105; first compound 0.04 µM", "value": 0.348}, {"measurement": "relative viability", "setting": "COR-L 105; first compound 0.1265 µM", "value": 0.413}, {"measurement": "relative viability", "setting": "COR-L 105; first compound 0.4 µM", "value": 0.383}, {"measurement": "relative viability", "setting": "COR-L 105; first compound 4 µM", "value": 0.336}, {"measurement": "relative viability", "setting": "EMC-BAC-2; first compound 0.04 µM", "value": 0.386}, {"measurement": "relative viability", "setting": "EMC-BAC-2; first compound 0.1265 µM", "value": 0.34}, {"measurement": "relative viability", "setting": "EMC-BAC-2; first compound 0.4 µM", "value": 0.394}, {"measurement": "relative viability", "setting": "EMC-BAC-2; first compound 4 µM", "value": 0.413}, {"measurement": "relative viability", "setting": "HARA; first compound 0.1265 µM", "value": 0.204}, {"measurement": "relative viability", "setting": "HARA; first compound 0.4 µM", "value": 0.34}, {"measurement": "relative viability", "setting": "HARA; first compound 4 µM", "value": 0.258}, {"measurement": "relative viability", "setting": "HCC-366; first compound 0.04 µM", "value": 0.7}, {"measurement": "relative viability", "setting": "HCC-366; first compound 0.1265 µM", "value": 0.636}, {"measurement": "relative viability", "setting": "HCC-366; first compound 0.4 µM", "value": 0.427}, {"measurement": "relative viability", "setting": "HCC-366; first compound 4 µM", "value": 0.529}, {"measurement": "relative viability", "setting": "HCC-827; first compound 0.04 µM", "value": 0.396}, {"measurement": "relative viability", "setting": "HCC-827; first compound 0.1265 µM", "value": 0.324}, {"measurement": "relative viability", "setting": "HCC-827; first compound 0.4 µM", "value": 0.344}, {"measurement": "relative viability", "setting": "HCC-827; first compound 4 µM", "value": 0.311}, {"measurement": "relative viability", "setting": "HOP-62; first compound 0.04 µM", "value": 0.664}, {"measurement": "relative viability", "setting": "HOP-62; first compound 0.1265 µM", "value": 0.57}, {"measurement": "relative viability", "setting": "HOP-62; first compound 0.4 µM", "value": 0.687}, {"measurement": "relative viability", "setting": "HOP-62; first compound 4 µM", "value": 0.518}, {"measurement": "relative viability", "setting": "LCLC-103H; first compound 0.04 µM", "value": 0.451}, {"measurement": "relative viability", "setting": "LCLC-103H; first compound 0.1265 µM", "value": 0.436}, {"measurement": "relative viability", "setting": "LCLC-103H; first compound 0.4 µM", "value": 0.405}, {"measurement": "relative viability", "setting": "LCLC-103H; first compound 4 µM", "value": 0.419}, {"measurement": "relative viability", "setting": "NCI-H1355; first compound 0.04 µM", "value": 0.639}, {"measurement": "relative viability", "setting": "NCI-H1355; first compound 0.1265 µM", "value": 0.723}, {"measurement": "relative viability", "setting": "NCI-H1355; first compound 0.4 µM", "value": 0.604}, {"measurement": "relative viability", "setting": "NCI-H1355; first compound 4 µM", "value": 0.646}, {"measurement": "relative viability", "setting": "NCI-H1395; first compound 0.04 µM", "value": 0.396}, {"measurement": "relative viability", "setting": "NCI-H1395; first compound 0.1265 µM", "value": 0.387}, {"measurement": "relative viability", "setting": "NCI-H1395; first compound 0.4 µM", "value": 0.366}, {"measurement": "relative viability", "setting": "NCI-H1395; first compound 4 µM", "value": 0.368}, {"measurement": "relative viability", "setting": "NCI-H1437; first compound 0.04 µM", "value": 0.334}, {"measurement": "relative viability", "setting": "NCI-H1437; first compound 0.1265 µM", "value": 0.34}, {"measurement": "relative viability", "setting": "NCI-H1437; first compound 0.4 µM", "value": 0.387}, {"measurement": "relative viability", "setting": "NCI-H1437; first compound 4 µM", "value": 0.359}, {"measurement": "relative viability", "setting": "NCI-H1755; first compound 0.04 µM", "value": 0.455}, {"measurement": "relative viability", "setting": "NCI-H1755; first compound 0.1265 µM", "value": 0.397}, {"measurement": "relative viability", "setting": "NCI-H1755; first compound 0.4 µM", "value": 0.427}, {"measurement": "relative viability", "setting": "NCI-H1755; first compound 4 µM", "value": 0.37}, {"measurement": "relative viability", "setting": "NCI-H1792; first compound 0.04 µM", "value": 0.74}, {"measurement": "relative viability", "setting": "NCI-H1792; first compound 0.1265 µM", "value": 0.684}, {"measurement": "relative viability", "setting": "NCI-H1792; first compound 0.4 µM", "value": 0.788}, {"measurement": "relative viability", "setting": "NCI-H1792; first compound 4 µM", "value": 0.72}, {"measurement": "relative viability", "setting": "NCI-H1915; first compound 0.04 µM", "value": 0.307}, {"measurement": "relative viability", "setting": "NCI-H1915; first compound 0.1265 µM", "value": 0.308}, {"measurement": "relative viability", "setting": "NCI-H1915; first compound 0.4 µM", "value": 0.319}, {"measurement": "relative viability", "setting": "NCI-H1915; first compound 4 µM", "value": 0.278}, {"measurement": "relative viability", "setting": "NCI-H1975; first compound 0.04 µM", "value": 0.378}, {"measurement": "relative viability", "setting": "NCI-H1975; first compound 0.1265 µM", "value": 0.39}, {"measurement": "relative viability", "setting": "NCI-H1975; first compound 0.4 µM", "value": 0.368}, {"measurement": "relative viability", "setting": "NCI-H1975; first compound 4 µM", "value": 0.249}, {"measurement": "relative viability", "setting": "NCI-H2009; first compound 0.04 µM", "value": 0.383}, {"measurement": "relative viability", "setting": "NCI-H2009; first compound 0.1265 µM", "value": 0.29}, {"measurement": "relative viability", "setting": "NCI-H2009; first compound 0.4 µM", "value": 0.305}, {"measurement": "relative viability", "setting": "NCI-H2009; first compound 4 µM", "value": 0.155}, {"measurement": "relative viability", "setting": "NCI-H2228; first compound 0.04 µM", "value": 0.595}, {"measurement": "relative viability", "setting": "NCI-H2228; first compound 0.1265 µM", "value": 0.498}, {"measurement": "relative viability", "setting": "NCI-H2228; first compound 0.4 µM", "value": 0.423}, {"measurement": "relative viability", "setting": "NCI-H2228; first compound 4 µM", "value": 0.383}, {"measurement": "relative viability", "setting": "NCI-H23; first compound 0.04 µM", "value": 0.751}, {"measurement": "relative viability", "setting": "NCI-H23; first compound 0.1265 µM", "value": 0.751}, {"measurement": "relative viability", "setting": "NCI-H23; first compound 0.4 µM", "value": 0.711}, {"measurement": "relative viability", "setting": "NCI-H23; first compound 4 µM", "value": 0.735}, {"measurement": "relative viability", "setting": "NCI-H460; first compound 0.04 µM", "value": 0.606}, {"measurement": "relative viability", "setting": "NCI-H460; first compound 0.1265 µM", "value": 0.484}, {"measurement": "relative viability", "setting": "NCI-H460; first compound 0.4 µM", "value": 0.427}, {"measurement": "relative viability", "setting": "NCI-H460; first compound 4 µM", "value": 0.339}, {"measurement": "relative viability", "setting": "NCI-H522; first compound 0.04 µM", "value": 0.775}, {"measurement": "relative viability", "setting": "NCI-H522; first compound 0.1265 µM", "value": 0.773}, {"measurement": "relative viability", "setting": "NCI-H522; first compound 0.4 µM", "value": 0.806}, {"measurement": "relative viability", "setting": "NCI-H522; first compound 4 µM", "value": 0.828}, {"measurement": "relative viability", "setting": "NCI-H727; first compound 0.04 µM", "value": 0.361}, {"measurement": "relative viability", "setting": "NCI-H727; first compound 0.1265 µM", "value": 0.368}, {"measurement": "relative viability", "setting": "NCI-H727; first compound 0.4 µM", "value": 0.378}, {"measurement": "relative viability", "setting": "NCI-H727; first compound 4 µM", "value": 0.286}, {"measurement": "relative viability", "setting": "SK-LU-1; first compound 0.04 µM", "value": 0.206}, {"measurement": "relative viability", "setting": "SK-LU-1; first compound 0.1265 µM", "value": 0.203}, {"measurement": "relative viability", "setting": "SK-LU-1; first compound 0.4 µM", "value": 0.171}, {"measurement": "relative viability", "setting": "SK-LU-1; first compound 4 µM", "value": 0.15}, {"measurement": "relative viability", "setting": "SW 1573; first compound 0.04 µM", "value": 0.736}, {"measurement": "relative viability", "setting": "SW 1573; first compound 0.1265 µM", "value": 0.613}, {"measurement": "relative viability", "setting": "SW 1573; first compound 0.4 µM", "value": 0.515}, {"measurement": "relative viability", "setting": "SW 1573; first compound 4 µM", "value": 0.355}]}]}
